# From US6156700A, “3-(1,2-Benzisothiazol- and isoxazol-5-yl)-2,4(1H,3H)-pyrimidinedione or thione and 3-(1,2-benzisothiazol- and isoxazol-5-yl)-4(3H)-pyrimidinone or thione herbicidal agents” (American Cyanmid Company, priority 1998, dated 2000)
# Several values for one entry are separate records, joined by “and”; a condition that tells them apart may be missing. Identical values can stand only once.
# Tests used:
# ECHCG = experiment: Postemergence herbicidal evaluation; format: in vivo
# GLXMAW [1] = experiment: Preemergence herbicidal evaluation; format: in vivo; set-up: scale not given here; conditions: 0.1250 kg/ha
# IPOHE [2] = experiment: Postemergence herbicidal evaluation; format: in vivo; conditions: 0.0625-0.0640 kg/ha
# ZEAMX = experiment: Postemergence herbicidal evaluation; format: in vivo
# GALAP = experiment: Postemergence herbicidal evaluation; format: in vivo
# GLXMAW [3] = experiment: Postemergence herbicidal evaluation; format: in vivo
# CASOB = experiment: Postemergence herbicidal evaluation; format: in vivo
# ORYSAT = experiment: Preemergence herbicidal evaluation; format: in vivo, Oryza sativa; set-up: scale not given here
# ABUTH = experiment: Postemergence herbicidal evaluation; format: in vivo
# IPOHE [4] = experiment: Preemergence herbicidal evaluation; format: in vivo; conditions: 0.1250 kg/ha
Structure (SMILES),herbicidal effect rating (ECHCG; 0.0313-0.0320 kg/ha),herbicidal effect rating (ECHCG; 0.0625-0.0640 kg/ha),herbicidal effect rating (ECHCG; 0.1250 kg/ha),herbicidal effect rating (ECHCG; 0.2500 kg/ha),herbicidal effect rating (ECHCG; 0.5000 kg/ha),herbicidal effect rating (ZEAMX; 0.0157-0.0160 kg/ha),herbicidal effect rating (ZEAMX; 0.0313-0.0320 kg/ha),herbicidal effect rating (ZEAMX; 0.0625-0.0640 kg/ha),herbicidal effect rating (ZEAMX; 0.1250 kg/ha),herbicidal effect rating (ZEAMX; 0.2500 kg/ha),herbicidal effect rating (ZEAMX; 0.5000 kg/ha),herbicidal effect rating (GALAP; 0.0625-0.0640 kg/ha),herbicidal effect rating (GALAP; 0.1250 kg/ha),herbicidal effect rating (GALAP; 0.2500 kg/ha),herbicidal effect rating (GALAP; 0.5000 kg/ha),herbicidal effect rating (CASOB; 0.0157-0.0160 kg/ha),herbicidal effect rating (CASOB; 0.0625-0.0640 kg/ha),herbicidal effect rating (CASOB; 0.1250 kg/ha),herbicidal effect rating (CASOB; 0.2500 kg/ha),herbicidal effect rating (CASOB; 0.5000 kg/ha),further results
"Cc1nsc2ccc(-n3c(=O)cc(C(F)(F)F)n(C)c3=O)cc12 [Compound 6, 1-Methyl-3-(3-methyl-1,2-benzisothiazol-5-yl)-6-(trifluoromethyl)-2,4(1H,3H)-pyrimidinedione]",1.0 and 2.0,3.0 and 1.5 and 2.0,7.0,6.0,7.0,3.5 and 4.0 and 2.0,3.8 and 4.3 and 3.5,5.0 and 4.5 and 3.5,3.5,3.5,3.0,9.0 and 5.0,9.0,9.0,9.0,0.0,2.5 and 4.0,7.0,8.0,7.0,herbicidal effect rating (GLXMAW [1]): 0.0; herbicidal effect rating (IPOHE [2]): 9.0 and 5.0; herbicidal effect rating (GLXMAW [3]; 0.0157-0.0160 kg/ha): 5.5 and 3.0; herbicidal effect rating (GLXMAW [3]; 0.0313-0.0320 kg/ha): 5.5 and 3.8 and 7.0; herbicidal effect rating (GLXMAW [3]; 0.0625-0.0640 kg/ha): 6.0 and 4.8 and 7.0; herbicidal effect rating (GLXMAW [3]; 0.1250 kg/ha): 7.0; herbicidal effect rating (GLXMAW [3]; 0.2500 kg/ha): 7.0; herbicidal effect rating (ORYSAT; 0.0156-0.0160 kg/ha): 2.8 and 4.0; herbicidal effect rating (ORYSAT; 0.0313-0.0320 kg/ha): 4.4 and 7.0; herbicidal effect rating (ORYSAT; 0.0620-0.0630 kg/ha): 7.0; herbicidal effect rating (ORYSAT; 0.1250 kg/ha): 8.0; herbicidal effect rating (ORYSAT; 0.2500 kg/ha): 8.0; herbicidal effect rating (ORYSAT; 0.5000 kg/ha): 9.0; herbicidal effect rating (ABUTH; 0.0157-0.0160 kg/ha): 5.7 and 5.0 and 8.0; herbicidal effect rating (ABUTH; 0.0313-0.0320 kg/ha): 9.0; herbicidal effect rating (ABUTH; 0.0625-0.0640 kg/ha): 9.0; herbicidal effect rating (ABUTH; 0.1250 kg/ha): 9.0; herbicidal effect rating (ABUTH; 0.2500 kg/ha): 9.0; herbicidal effect rating (ABUTH; 0.5000 kg/ha): 9.0; herbicidal effect rating (IPOHE [4]): 3.0
"Cn1c(C(F)(F)F)cc(=O)n(-c2ccc3snc(-c4ccccc4)c3c2)c1=O [Compound 4, 1-Methyl-3-(3-phenyl-1,2-benzisothiazol-5-yl)-6-(trifluoromethyl)-2,4(1H,3H)-pyrimidinedione]",5.0,7.0,8.0,8.0,9.0,2.0,2.0,3.0,3.0,3.0,3.0,9.0,9.0,9.0,9.0,7.0,9.0,9.0,9.0,9.0,herbicidal effect rating (ECHCG; 0.0157-0.0160 kg/ha): 2.0; herbicidal effect rating (GALAP; 0.0157-0.0160 kg/ha): 4.0; herbicidal effect rating (GALAP; 0.0313-0.0320 kg/ha): 9.0; herbicidal effect rating (CASOB; 0.0313-0.0320 kg/ha): 7.0; herbicidal effect rating (ORYSAT; 0.0313-0.0320 kg/ha): 7.0; herbicidal effect rating (ORYSAT; 0.0620-0.0630 kg/ha): 7.0; herbicidal effect rating (ORYSAT; 0.1250 kg/ha): 7.0; herbicidal effect rating (ORYSAT; 0.2500 kg/ha): 7.0; herbicidal effect rating (ORYSAT; 0.5000 kg/ha): 7.0; herbicidal effect rating (ABUTH; 0.0157-0.0160 kg/ha): 9.0; herbicidal effect rating (ABUTH; 0.0313-0.0320 kg/ha): 9.0; herbicidal effect rating (ABUTH; 0.0625-0.0640 kg/ha): 9.0; herbicidal effect rating (ABUTH; 0.1250 kg/ha): 9.0; herbicidal effect rating (ABUTH; 0.2500 kg/ha): 9.0; herbicidal effect rating (ABUTH; 0.5000 kg/ha): 9.0
